How the values were obtained:
Experiment in all cases: relative viability (nuclei count vs DMSO), 5 days (fraction); higher = more cells survive
[1] = compound: CC1=C(C(=NN1)C)CC2=C(C3=C(S2)N(C(=O)N(C3=O)C)CC(C)C)C(=O)N4C[C@@H](CO4)O + COc1cccc2cc(-c3nc([C@H]4CC[C@H](C(=O)O)CC4)n4ncnc(N)c34)[nH]c12 [OSI-027] (partner 0.5 µM)
Summary of the method: (§1)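 Relative viability divides the nuclei count in treated wells by that in vehicle wells. Lung cancer cell lines were seeded in 1536-well plates, dosed by pin tool the next day, and fixed and stained after 5 days in one step with final 0.05% Triton X-100, 1% formaldehyde and 1 ug/ml Hoechst. Dosing was a single drug or a fixed anchor-drug dose plus five library-drug doses (not always all listed) in √10 steps, and values are medians of duplicate plates imaged at 4×.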

[2] = compound: CC1=C(C(=NN1)C)CC2=C(C3=C(S2)N(C(=O)N(C3=O)C)CC(C)C)C(=O)N4C[C@@H](CO4)O + Cc1cc(Nc2cc(N3CCN(C)CC3)nc(Sc3ccc(NC(=O)C4CC4)cc3)n2)n[nH]1 [Tozasertib] (partner 0.1 µM)
Summary of the method: as §1

[3] = compound: CC1=C(C(=NN1)C)CC2=C(C3=C(S2)N(C(=O)N(C3=O)C)CC(C)C)C(=O)N4C[C@@H](CO4)O + Cc1nc(Nc2ncc(C(=O)Nc3c(C)cccc3Cl)s2)cc(N2CCN(CCO)CC2)n1 [Dasatinib] (partner 0.075 µM)
Summary of the method: as §1

IDH-C35 + Phenformin = compound: Cc1ccccc1C(C(=O)NC1CCCCC1)N(C(=O)Cn1ccnc1C)c1cccc(F)c1 [IDH-C35] + N=C(N)NC(=N)NCCc1ccccc1 [Phenformin] (partner 250 µM)
Summary of the method: as §1

For UMC-11, the relative viability ([1]; first compound 0.0025 µM) was 0.494, the relative viability ([1]; first compound 0.007906 µM) was 0.473 and the relative viability ([1]; first compound 0.025 µM) was 0.468. The relative viability ([1]; first compound 0.07906 µM) was 0.549, the relative viability ([1]; first compound 0.25 µM) was 0.572 and the relative viability ([2]; first compound 0.0025 µM) was 0.199. For the same cell line, the relative viability ([2]; first compound 0.007906 µM) was 0.172, the relative viability ([2]; first compound 0.025 µM) was 0.196 and the relative viability ([2]; first compound 0.07906 µM) was 0.207. It also gave a relative viability ([2]; first compound 0.25 µM) of 0.175, a relative viability ([3]; first compound 0.0025 µM) of 0.435 and a relative viability ([3]; first compound 0.007906 µM) of 0.468. It also gave a relative viability ([3]; first compound 0.025 µM) of 0.451, a relative viability ([3]; first compound 0.07906 µM) of 0.348 and a relative viability ([3]; first compound 0.25 µM) of 0.439. For the same cell line, the relative viability (IDH-C35 + Phenformin; first compound 0.08 µM) was 0.317, the relative viability (IDH-C35 + Phenformin; first compound 0.253 µM) was 0.337 and the relative viability (IDH-C35 + Phenformin; first compound 0.8 µM) was 0.33. It also gave a relative viability (IDH-C35 + Phenformin; first compound 2.53 µM) of 0.313 and a relative viability (IDH-C35 + Phenformin; first compound 8 µM) of 0.291.

Source: the supplement of paper PMC10307832
